Data set [1] is described as follows: PAMPA (parallel artificial membrane permeability assay). The following applies: PAMPA. The format is in vitro ADME. Put shortly:
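Artificial membrane was 10% (w/v) egg lecithin plus 0.5% (w/v) cholesterol in dodecane on a PVDF filter. A 10 mM DMSO stock was added at 0.5% (v/v) to donor buffer (50 mM MOPSO, pH 6.5, 5.0% glycocholic acid). After 18 h at 37 °C, LC/MS or LC/UV gave donor and acceptor levels for Pe.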
For orientation: In PAMPA a lipid-coated filter parts donor from acceptor wells.

Data set [2] can be described thus: Metabolic stability in human hepatic microsome. The format is in vitro ADME. The following applies: microsomes.

Where two headings read alike, the source gives them in different places. Starred links: 1 amine or outer side, 2 acyl side, 3 side chain; linkers in the order of their positions; H or OH if unused. Non-standard residues stand in square brackets, D forms with d. Residues, ends and D or L forms follow the SMILES beside them. *: point of attachment. Phe(4-CF3) = N[C@@H](Cc1ccc(C(F)(F)F)cc1)C(=O)O; NMeF = CN[C@@H](Cc1ccccc1)C(=O)O; NMeGABA = CN(CCCC(=O)[*:2])[*:1]; NMeI = CC[C@H](C)[C@H](NC)C(=O)O; NMeβAla = CN(CCC(=O)[*:2])[*:1]; Aoc(2) = CCCCCC[C@H](N)C(=O)O; NMeL = CN[C@@H](CC(C)C)C(=O)O; NMeV = CN[C@H](C(=O)O)C(C)C; NMeA = CN[C@@H](C)C(=O)O; β3hA = C[C@H](N)CC(=O)O; Sar = CNCC(=O)O; tBu = CC(C)(C)*

In data set [1] (pH 6.5), `CC[C@H](C)[C@H]1C(=O)N(C)[C@@H](CC(C)C)C(=O)N[C@@H](C)C(=O)N(C)[C@@H](CC(C)C)C(=O)N(C)[C@@H](Cc2ccccc2)C(=O)N[C@@H]([C@@H](C)O)C(=O)N(C)[C@@H](Cc2ccccc2)C(=O)N(C)[C@@H](CC(C)C)C(=O)N(C)[C@@H](C)C(=O)N[C@@H](C)CC(=O)N[C@H](C(C)C)C(=O)N1C` [DP-773] (cyclo(A[NMeL][NMeF]T[NMeF][NMeL][NMeA][β3hA][dV][NMeI][NMeL])) yielded a Papp at 18 hours, 50 µM of 46 ×10⁻⁶ cm/s. The compound also showed a microsomal CLint at 1 uM in data set [2] (human, pH 7.4, CL NADPH(+)) of 17 µL/min/mg.

As for `CCCCCC[C@@H]1NC(=O)[C@H](CC(C)C)N(C)C(=O)[C@@H]2CCCN2C(=O)[C@H](C)N(C)C(=O)[C@H](Cc2ccccc2)N(C)C(=O)[C@H](Cc2ccccc2)N(C)C(=O)CN(C)C(=O)[C@H]([C@@H](C)O)NC(=O)[C@H](C)N(C)C(=O)C[C@H](C)NC(=O)[C@H](C(C)C)N(C)C1=O` [DP-774] (cyclo([Aoc(2)][NMeV][β3hA][NMeA]T[Sar][NMeF][NMeF][NMeA]P[NMeL])), the Papp at 18 hours, 50 µM in data set [1] (pH 6.5) was 26 ×10⁻⁶ cm/s. In addition, in data set [2] (human, pH 7.4, CL NADPH(+)), the microsomal CLint at 1 uM was 71 µL/min/mg.

As to `CCCCCC[C@@H]1NC(=O)[C@H](Cc2ccccc2)N(C)C(=O)[C@H](C)N(C)C(=O)C[C@H](C)NC(=O)[C@H](C(C)C)N(C)C(=O)[C@H](Cc2ccccc2)N(C)C(=O)[C@H](COC(C)(C)C)NC(=O)[C@H](C)N(C)C(=O)CN(C)C(=O)[C@H]([C@@H](C)O)NC(=O)[C@H](CC(C)C)N(C)C1=O` [DP-775] (cyclo([Aoc(2)][NMeL]T[Sar][NMeA]S(tBu)[NMeF][NMeV][β3hA][NMeA][NMeF])), the Papp at 18 hours, 50 µM in data set [1] (pH 6.5) came out at 37 ×10⁻⁶ cm/s. The microsomal CLint at 1 uM in data set [2] (human, pH 7.4, CL NADPH(+)) was 119 µL/min/mg.

On to `CC[C@H](C)[C@@H]1NC(=O)[C@H](CC(C)C)N(C)C(=O)[C@H](CC(C)C)N(C)C(=O)[C@H](C)NC(=O)[C@H](CC(C)C)N(C)C(=O)[C@H](Cc2ccc(C(F)(F)F)cc2)NC(=O)[C@H]([C@@H](C)O)NC(=O)[C@H](CC(C)C)N(C)C(=O)[C@H](CC(C)C)N(C)C(=O)[C@H](C)N(C)C(=O)C[C@H](C)NC1=O` [DP-776] (cyclo(A[NMeL][NMeL]I[β3hA][NMeA][NMeL][NMeL]T[Phe(4-CF3)][NMeL])), for which the Papp at 18 hours, 50 µM in data set [1] (pH 6.5) stood at 18 ×10⁻⁶ cm/s. Moreover, the microsomal CLint at 1 uM in data set [2] (human, pH 7.4, CL NADPH(+)) came out at 44 µL/min/mg.

With `CC(C)C[C@H]1C(=O)N(C)[C@@H](CC(C)C)C(=O)N[C@@H]([C@@H](C)O)C(=O)N(C)[C@@H](Cc2ccccc2)C(=O)NCC(=O)N(C)[C@@H](C(C)C)C(=O)N[C@@H](Cc2ccccc2)C(=O)N[C@@H](C)CC(=O)N(C)CCC(=O)N[C@@H](COC(C)(C)C)C(=O)N1C` [DP-777] (cyclo(F[β3hA][NMeβAla]S(tBu)[NMeL][NMeL]T[NMeF]G[NMeV])), the Papp at 18 hours, 50 µM in data set [1] (membrane permeation rate (Pe), 50 mM MOPSO buffer pH 6.5 with 5.0% glycocholic acid, 37° C., 18 hours, read-out: iPAMPA Pe) amounted to 39 ×10⁻⁶ cm/s. Further, in data set [2] (pH 7.4, human hepatic microsome, NADPH(+), read-out: CL NADPH(+)), the microsomal CLint at 1 uM is 428 µL/min/mg.

Consider `CC[C@H](C)[C@@H]1NC(=O)[C@H](CC(C)C)N(C)C(=O)[C@H](C)NC(=O)CCCN(C)C(=O)C[C@H](C)NC(=O)[C@H]([C@@H](C)O)NC(=O)[C@H](Cc2ccccc2)NC(=O)[C@H](C(C)C)N(C)C(=O)[C@H](C)N(C)C(=O)[C@H](Cc2ccccc2)N(C)C1=O` [DP-778] (cyclo(A[NMeL]I[NMeF][NMeA][NMeV]FT[β3hA][NMeGABA])), for which the Papp at 18 hours, 50 µM in data set [1] (pH 6.5) turned out to be 26 ×10⁻⁶ cm/s. For the same compound, in data set [2] (human, pH 7.4, CL NADPH(+)), the microsomal CLint at 1 uM stood at 139 µL/min/mg.

In the case of `CC[C@H](C)[C@H]1C(=O)N[C@@H](COC(C)(C)C)C(=O)N[C@@H](C)CC(=O)N(C)[C@@H](C)C(=O)N(C)[C@@H](Cc2ccccc2)C(=O)N(C)CC(=O)N(C)[C@@H](CC(C)C)C(=O)N[C@@H]([C@@H](C)O)C(=O)N(C)[C@@H](C)C(=O)N(C)[C@@H](CC(C)C)C(=O)N1C` [DP-779] (cyclo([NMeA][NMeF][Sar][NMeL]T[NMeA][NMeL][NMeI]S(tBu)[β3hA])), the Papp at 18 hours, 50 µM in data set [1] (pH 6.5) is 37 ×10⁻⁶ cm/s. The microsomal CLint at 1 uM in data set [2] (human, pH 7.4, CL NADPH(+)) turned out to be 78 µL/min/mg.

`CC[C@H](C)[C@@H]1NC(=O)[C@H](CC(C)C)N(C)C(=O)[C@H](Cc2ccccc2)N(C)C(=O)[C@@H](C(C)C)NC(=O)C[C@H](C)NC(=O)[C@H](CC(C)C)N(C)C(=O)[C@H](C)N(C)C(=O)[C@H]([C@@H](C)O)NC(=O)[C@H](Cc2ccccc2)N(C)C(=O)[C@H](C)N(C)C1=O` [DP-780] (cyclo(I[NMeA][NMeF]T[NMeA][NMeL][β3hA][dV][NMeF][NMeL])) showed a Papp at 18 hours, 50 µM in data set [1] (pH 6.5) of 41 ×10⁻⁶ cm/s. In data set [2] (human, pH 7.4, CL NADPH(+)), this compound returned a microsomal CLint at 1 uM of 249 µL/min/mg.

In the case of `CC[C@H](C)[C@@H]1NC(=O)[C@H](CC(C)C)N(C)C(=O)[C@H](Cc2ccccc2)N(C)C(=O)[C@@H](C(C)C)NC(=O)C[C@H](C)NC(=O)[C@H](CC(C)C)N(C)C(=O)[C@H](C)N(C)C(=O)[C@H]([C@@H](C)O)NC(=O)[C@H](Cc2ccccc2)N(C)C(=O)[C@H](CC(C)C)N(C)C1=O` [DP-781] (cyclo(I[NMeL][NMeF]T[NMeA][NMeL][β3hA][dV][NMeF][NMeL])), the Papp at 18 hours, 50 µM in data set [1] (pH 6.5) came out at 29 ×10⁻⁶ cm/s. Moreover, the microsomal CLint at 1 uM in data set [2] (human, pH 7.4, CL NADPH(+)) was determined as 142 µL/min/mg.

Source of the values: patent US9409952B2, “Peptide-compound cyclization method” (Chugai Seiyaku Kabushiki Kaisha, priority 2011, dated 2016).
